In ChEMBL document CHEMBL1201862, “PubChem BioAssay data set” (2004):
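Five compound concentrations were applied to cells in 96-well plates for 48 hours; endpoints were derived by simple linear interpolation of the resulting dose-response curve. GI50: concentration for 50% inhibition of growth.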 The source made the active and inactive calls. No stated cut-off is given here; in the data, active = GI50 up to about 1.1 µM and inactive = higher. Peptide text beside a SMILES is read from it. * marks the point of attachment. Cbz = O=C(OCc1ccccc1)*; NHNH2 = NN*

Tests used:
Experiment in all cases: inhibition of tumour cell growth, NCI panel, 48 h
M14 = tested on: M14
SF-539 = tested on: SF-539
UACC-257 = tested on: UACC-257
LOX IMVI = tested on: LOX IMVI
IGROV-1 = tested on: IGROV-1
U-251 = tested on: U-251
TK-10 = tested on: TK-10
SN12C = tested on: SN12C
MDA-N = tested on: MDA-N
MDA-MB-435 = tested on: MDA-MB-435
HT-29 = tested on: HT-29
SW-620 = tested on: SW-620
K562 = tested on: K562
HCT-116 = tested on: HCT-116
HCT-15 = tested on: HCT-15
SK-MEL-28 = tested on: SK-MEL-28
SF-268 = tested on: SF-268
CCRF-CEM = tested on: CCRF-CEM
OVCAR-3 = tested on: OVCAR-3

Structure (SMILES) | GI50 (M14) | GI50 (SF-539) | GI50 (UACC-257) | GI50 (LOX IMVI) | GI50 (IGROV-1) | GI50 (U-251) | GI50 (TK-10) | GI50 (SN12C) | GI50 (MDA-N) | GI50 (MDA-MB-435) | GI50 (HT-29) | GI50 (SW-620) | GI50 (K562) | GI50 (HCT-116) | GI50 (HCT-15) [µM] | GI50 (SK-MEL-28) | GI50 (SF-268) | GI50 (CCRF-CEM) | GI50 (OVCAR-3)
CCN(CC)c1nc(N(C)C)c2ccccc2n1 | 15.6 µM (inactive) | 24.3 µM (inactive) | 26.7 µM (inactive) | 30.1 µM (inactive) | 37 µM (inactive) | 28.4 µM (inactive) | 44.7 µM (inactive) | 20.9 µM (inactive) | 16.5 µM (inactive) | 28.9 µM (inactive) | 11.6 µM (inactive) | 32.1 µM (inactive) | 10.6 µM (inactive) | 10.8 µM (inactive) | 33.3 | 31.8 µM (inactive) | 52.2 µM (inactive) |  | 
COc1ccc(OC)c2sc(N3C(=O)/C(=C/c4cccc(Oc5ccccc5)c4)N=C3c3ccccc3)nc12 | > 100 µM (inactive) |  | 71.3 µM (inactive) | 65.3 µM (inactive) | > 100 µM (inactive) | 92 µM (inactive) | > 100 µM (inactive) | > 100 µM (inactive) | 38 µM (inactive) | 29.3 µM (inactive) | > 100 µM (inactive) | 51.1 µM (inactive) | 32.1 µM (inactive) | 85.1 µM (inactive) | 87.9 | > 100 µM (inactive) | > 100 µM (inactive) | 29.9 µM (inactive) | > 100 µM (inactive)
C[C@]12CC[C@H]3[C@@H](CC=C4C[C@@H](O)CC[C@@]43C)[C@@H]1C/C(=C\c1cccnc1)[C@@H]2O | > 100 µM (inactive) | 14 µM (inactive) | 39.2 µM (inactive) | 1.28 µM (inactive) | 24.7 µM (inactive) | 6.27 µM (inactive) | 19.6 µM (inactive) | 9.44 µM (inactive) | > 100 µM (inactive) | > 100 µM (inactive) | 43.8 µM (inactive) | 89.9 µM (inactive) |  | 25 µM (inactive) | 38.1 | 32.1 µM (inactive) |  | 23.6 µM (inactive) | 
O=C1NC(N2CCCCC2)=N/C1=C\c1cccs1 | > 100 µM (inactive) | > 100 µM (inactive) | > 100 µM (inactive) | > 100 µM (inactive) | > 100 µM (inactive) | > 100 µM (inactive) | > 100 µM (inactive) | > 100 µM (inactive) | > 100 µM (inactive) | > 100 µM (inactive) | > 100 µM (inactive) | > 100 µM (inactive) |  | > 100 µM (inactive) | > 100 | > 100 µM (inactive) | > 100 µM (inactive) | > 100 µM (inactive) | > 100 µM (inactive)
CC(=O)NC1C(OCc2ccccc2)OC(CO)C(O)C1OC(C)C(=O)NC(C(=O)NC(CCC(=O)NCCCCNc1c2ccccc2nc2cccc([N+](=O)[O-])c12)C(N)=O)C(C)C (centres undefined) | 1.62 µM (inactive) | 3.3 µM (inactive) | 3.14 µM (inactive) | 1.67 µM (inactive) | 2.05 µM (inactive) | 3.21 µM (inactive) | 3.1 µM (inactive) | 1.71 µM (inactive) | 1.64 µM (inactive) | 1.45 µM (inactive) | 1.14 µM (inactive) | 0.993 µM (active) | 0.458 µM (active) | 0.975 µM (active) | 3.21 | 2.67 µM (inactive) | 2.99 µM (inactive) |  | 2.13 µM (inactive)
COC(=O)C(I(OS(=O)(=O)c1ccc(C)cc1)c1ccccc1)=P(c1ccccc1)(c1ccccc1)c1ccccc1 | 15.8 µM (inactive) | 19.4 µM (inactive) | 17.9 µM (inactive) |  | 17.1 µM (inactive) | 20.7 µM (inactive) | 23.6 µM (inactive) | 43.2 µM (inactive) | 14.1 µM (inactive) | 18 µM (inactive) | 20.6 µM (inactive) |  | 12.7 µM (inactive) | 16.3 µM (inactive) | 35.3 | 15.1 µM (inactive) | 17.5 µM (inactive) | 10.3 µM (inactive) | 16.4 µM (inactive)
COc1ccc(-c2cc(-c3ccco3)c(C#N)c(=S)n2C2OC(COC(C)=O)C(OC(C)=O)C(OC(C)=O)C2OC(C)=O)cc1 (centres undefined) | 5.27 µM (inactive) | 1.85 µM (inactive) |  | 3.64 µM (inactive) | 13.3 µM (inactive) | 5.94 µM (inactive) | 30.2 µM (inactive) | 10.1 µM (inactive) | 5.5 µM (inactive) | 7.71 µM (inactive) | 3.24 µM (inactive) | 6.19 µM (inactive) | 2.43 µM (inactive) | 6.79 µM (inactive) | 31.6 | 3.3 µM (inactive) | 8.45 µM (inactive) |  | 7.13 µM (inactive)
CCC(CCC(C)C1CCC2C3CC=C4CC(OC5OC(CO)C(O)C(O)C5O)CCC4(C)C3CCC12C)C(C)C (centres undefined) | > 100 µM (inactive) | > 100 µM (inactive) | > 100 µM (inactive) | > 100 µM (inactive) | > 100 µM (inactive) | > 100 µM (inactive) | > 100 µM (inactive) | > 100 µM (inactive) | > 100 µM (inactive) | > 100 µM (inactive) | > 100 µM (inactive) | > 100 µM (inactive) |  | > 100 µM (inactive) | > 100 | > 100 µM (inactive) | > 100 µM (inactive) | > 100 µM (inactive) | > 100 µM (inactive)
c1ccc2c(c1)Sc1ccccc1N2CCCN1c2ccccc2Sc2ccccc21 | 50.6 µM (inactive) | > 100 µM (inactive) | > 100 µM (inactive) | > 100 µM (inactive) | > 100 µM (inactive) | 45.9 µM (inactive) | > 100 µM (inactive) | 91.6 µM (inactive) | > 100 µM (inactive) | 58.9 µM (inactive) | > 100 µM (inactive) | > 100 µM (inactive) | > 100 µM (inactive) | 55.5 µM (inactive) | > 100 | > 100 µM (inactive) | > 100 µM (inactive) |  | 63.5 µM (inactive)
O=[N+]([O-])c1ccc(-c2nn3c(C45CC6CC(CC(C6)C4)C5)nnc3s2)c(Cl)c1 | > 100 µM (inactive) | > 100 µM (inactive) |  | > 100 µM (inactive) | > 100 µM (inactive) | > 100 µM (inactive) | > 100 µM (inactive) | > 100 µM (inactive) | > 100 µM (inactive) | > 100 µM (inactive) | > 100 µM (inactive) | > 100 µM (inactive) | > 100 µM (inactive) | > 100 µM (inactive) | > 100 | > 100 µM (inactive) | > 100 µM (inactive) | > 100 µM (inactive) | > 100 µM (inactive)
NC(=O)c1cc2cc(Cl)cc(Cl)c2o/c1=N\c1ccc(F)cc1 | 20.3 µM (inactive) |  | 19.5 µM (inactive) | 27.6 µM (inactive) | 26.4 µM (inactive) | 19.6 µM (inactive) | 14.3 µM (inactive) | 16.7 µM (inactive) | 22.4 µM (inactive) | 20 µM (inactive) | 29.6 µM (inactive) | 30.3 µM (inactive) | 7.11 µM (inactive) | 17.3 µM (inactive) | 17.3 | 21.9 µM (inactive) | 32.4 µM (inactive) | 56.8 µM (inactive) | 21.2 µM (inactive)
C[C@@H]1CCC2[C@@H](C)[C@@H](OCCO[C@H]3OC4O[C@@]5(C)CCC6[C@H](C)CCC([C@H]3C)[C@@]46OO5)OC3O[C@@]4(C)CCC1[C@]32OO4 (some centres undefined) | 0.379 µM (active) | 0.202 µM (active) | 0.39 µM (active) | 0.0565 µM (active) | 0.0652 µM (active) | 0.0902 µM (active) | 0.206 µM (active) | 0.541 µM (active) | 0.219 µM (active) | 0.239 µM (active) | 0.05 µM (active) | 0.0537 µM (active) | 0.0212 µM (active) | 0.0251 µM (active) | 0.0238 | 2.86 µM (inactive) | 0.233 µM (active) | 0.0682 µM (active) | 
CCOC(=O)C(Cc1ccc(OC(=O)c2ccc(OC)cc2)cc1)NC(=O)C(F)(F)F (centres undefined) | > 100 µM (inactive) | > 100 µM (inactive) | > 100 µM (inactive) | > 100 µM (inactive) | 45.3 µM (inactive) | 69.3 µM (inactive) | > 100 µM (inactive) | > 100 µM (inactive) | > 100 µM (inactive) | > 100 µM (inactive) | > 100 µM (inactive) | > 100 µM (inactive) | > 100 µM (inactive) | > 100 µM (inactive) | > 100 |  | 35.6 µM (inactive) | 39.5 µM (inactive) | > 100 µM (inactive)
COc1cc(C2C(Cl)C(=O)N2c2c(C)n(C)n(-c3ccccc3)c2=O)ccc1O (centres undefined) | 15.7 µM (inactive) | 16.3 µM (inactive) | 16.4 µM (inactive) | 16.5 µM (inactive) | 14.1 µM (inactive) | 18 µM (inactive) | 24.7 µM (inactive) | 19.1 µM (inactive) | 15.6 µM (inactive) | 16.4 µM (inactive) | 17.7 µM (inactive) | 15 µM (inactive) | 26.6 µM (inactive) | 6.37 µM (inactive) |  |  | 24.9 µM (inactive) | 22.7 µM (inactive) | 28.2 µM (inactive)
COC(=O)CC(NC(=O)OCc1ccccc1)C(=O)NC(CC(=O)OC)C(=O)NC(CC(=O)OC)C(=O)NC(CC(=O)OC)C(=O)NC(CC(=O)OC)C(=O)NC(CC(=O)OC)C(=O)NN (centres undefined) (Cbz-D(OMe)D(OMe)D(OMe)D(OMe)D(OMe)D(OMe)-NHNH2; configuration not given here) | > 100 µM (inactive) | > 100 µM (inactive) | > 100 µM (inactive) | > 100 µM (inactive) | > 100 µM (inactive) | > 100 µM (inactive) | > 100 µM (inactive) | > 100 µM (inactive) | > 100 µM (inactive) | > 100 µM (inactive) | > 100 µM (inactive) | > 100 µM (inactive) | > 100 µM (inactive) | > 100 µM (inactive) | > 100 | > 100 µM (inactive) | > 100 µM (inactive) | > 100 µM (inactive) | 
